Reference: patent US5877199A, “Heterocyclic compounds, their preparation and their therapeutic use” (priority 1994, dated 1999)

Target: T1, m1 muscarinic receptors (Homo sapiens, UniProt P11229)
T1 construct: expressed in transfected cells; host or cells: CHO (Chinese Hamster Ovary) cells, membranes
T1 sequence (P11229 1-460): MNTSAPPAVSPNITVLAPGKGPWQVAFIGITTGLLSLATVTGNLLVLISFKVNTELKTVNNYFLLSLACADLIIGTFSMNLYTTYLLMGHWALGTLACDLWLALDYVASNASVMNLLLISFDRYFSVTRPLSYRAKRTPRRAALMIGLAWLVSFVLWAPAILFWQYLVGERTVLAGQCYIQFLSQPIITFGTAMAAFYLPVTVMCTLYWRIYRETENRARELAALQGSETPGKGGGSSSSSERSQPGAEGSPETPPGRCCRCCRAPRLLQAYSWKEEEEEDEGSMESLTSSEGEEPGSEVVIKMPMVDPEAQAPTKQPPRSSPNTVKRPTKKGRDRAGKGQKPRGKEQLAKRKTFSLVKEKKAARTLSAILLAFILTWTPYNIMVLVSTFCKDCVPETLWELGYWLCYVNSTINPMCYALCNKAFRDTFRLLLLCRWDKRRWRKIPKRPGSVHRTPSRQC
Test: Effect on ACh binding: ACh inhibition of 3H-NMS binding (indirect assay) on CHO cell membranes
Conditions: tested at 3 μg/ml; 0.15 nM 3H-NMS, 30 μM ACh, 0.2 mM GTP, pH 7.4, 30° C., two hours
Text: The compounds of the present invention may be assayed for allosteric activity at m1 muscarinic receptors as described below, although the assays we describe are not necessarily exhaustive, and other assays may be employed, as desired, to establish allosterism.
A suitable cell line is CHO (Chinese Hamster Ovary), which are readily engineered to express only one receptor sub-type.
To obtain the large amount of cell membranes required, plates of 530 cm^2 culture area were used. CHO cells which express m1, m2, m3 and m4 receptors were grown separately in MEM alpha medium containing 10% newborn calf serum and antibiotics. When cells reached confluence, they were washed twice with 10 ml of 20 mM HEPES containing 10 mM EDTA (pH 7.4), scraped into the same buffer and homogenized using a Polytron (trademark) homogenizer (setting 5-6 for 5 sec×2). Membrane pellets were obtained by centrifugation (40000×g, 10 min, 4° C.) and resuspended in 20 mM HEPES-0.1 mM EDTA (pH 7.4). Centrifugation and resuspension were repeated twice to wash the cell membranes. After measurement of membrane protein, the membranes (1 or 2 mg protein/ml) were stored at -70° C.
While the direct assay measures ACh (=acetylcholine) binding only to the high affinity state, the indirect assay measures effects only at the low affinity state. This is achieved by including 0.2 mM GTP in the assay. In this assay a fixed concentration of ^3 H-NMS (roughly the Kd value) is incubated in the absence and presence of a fixed concentration of ACh (at about the IC50 value) and the effects of three concentrations of test agent are measured, again in the absence and presence of ACh.
Calculating the effects on ^3 H-NMS binding alone is as follows: binding in the presence of the agent is expressed as a percentage of binding in its absence and, if the effect is inhibitory, an IC50 is estimated graphically. The assay also contains a single high concentration of ^3 H-NMS (4 nM, about 30 times the Kd) which provides an estimate of Bmax (i.e. maximum binding).
Expressing the effect on cold ACh binding will be explained with reference to FIGS. 1a, b and c. These figures show theoretical data and the effects of the transformations described below. In FIGS. 1a and 1b ^3 H-NMS and cold ACh are present at their Kd concentrations; in FIG. 1a the agent has a negative allosteric effect on ^3 H-NMS, while in FIG. 1b it has a positive allosteric effect on ^3 H-NMS. The left panels show the amount of ^3 H-NMS specifically bound in the assay. If the affinity of ACh is reduced by the test agent, as shown in the top panels of FIGS. 1a and 1b, the inhibition by ACh will decrease, but the counts recovered will also depend on the effect of the agent on ^3 H-NMS binding alone. To calculate the effect on ACh binding the inhibitory effect of ACh is first calculated as a percent of its own control in the absence of ACh. Next it is assumed that fractional inhibition is the same as tractional occupancy, and inhibition in the presence of agent is expressed as a percentage of inhibition in the absence of agent. The effects of these transformations are shown in the centre panels. Expressing inhibition by ACh in the presence of agent as a percentage of inhibition in the absence of agent allows the effect of the agent on cold ACh binding to be seen on the same scale as the effect on ^3 H-NMS and ^3 H-ACh binding and is generally preferred.
If the concentration of ^3 H-NMS used in the indirect assay is around the Kd value or less, the transformation described above provides a qualitative and semi-quantitative measure of the agent's effect. If a higher concentration of ^3 H-NMS is used, or if the agent has a positive allosteric effect on ^3 H-NMS, then the results of this transformation may be misleading. […] It is assumed that ACh binds to a single affinity state i.e. that its inhibition curve has a slope of 1, and so an IC50 is calculated from the percentage inhibition of control binding. […]

For `CSc1c(CC(=O)O)ccc2c3ccccc3n(Cc3ccccc3)c12` [Example 5, (9-Benzyl-1-methylthiocarbazol-2-yl)acetic acid], the “Effect on ACh Binding” value was 2.62.

With `CSc1c(CC(=O)O)ccc2c3ccccc3n(Cc3ccc(Cl)cc3)c12` [Example 7, [9-(4-Chlorobenzyl)-1-methylthiocarbazol-2-yl]acetic acid] the “Effect on ACh Binding” value was 3.55.

In the case of `CSc1c(CC(=O)OC(C)(C)C)ccc2c3ccccc3n(Cc3ccc(F)cc3)c12` [Example 8, tert-Butyl [9-(4-fluorobenzyl)-1-methylthiocarbazol-2-yl]acetate], the “Effect on ACh Binding” value is reported as 3.46.

`CSc1c(CC(=O)O)cc(C)c2c3ccccc3n(Cc3ccccc3)c12` [Example 14, (9-Benzyl-4-methyl-1-methylthiocarbazol-2-yl)acetic acid] was tested, and the “Effect on ACh Binding” value was 3.89.

With `CSc1c(C(Cc2ccccc2)C(=O)O)cc(C)c2c1[nH]c1ccccc12` (stereo not drawn) [Example 15, 2-(4-Methyl-1-methylthiocarbazol-2-yl)-3-phenylpropionic acid] the “Effect on ACh Binding” value was 2.42.

For `CSc1c(C(Cc2ccccc2)C(=O)O)ccc2c3ccccc3n(Cc3ccccc3)c12` (stereo not drawn) [Example 17, 2-(9-Benzyl-1-methylthiocarbazol-2-yl)-3-phenylpropionic acid], the “Effect on ACh Binding” value was 2.50.

In the case of `CSc1c(C(Cc2ccc([N+](=O)[O-])cc2)C(=O)O)ccc2c3ccccc3n(Cc3ccc([N+](=O)[O-])cc3)c12` (stereo not drawn) [Example 23, 2-[9-(4-Nitrobenzyl)-1-methylthiocarbazol-2-yl]-3-(4-nitrophenyl)propionic acid], the “Effect on ACh Binding” value is reported as 2.72.

In the case of `Cc1c(CCC(=O)O)ccc2c3ccccc3n(Cc3ccccc3)c12` [Example 37, 3-(9-Benzyl-1-methylcarbazol-2-yl)propionic acid], the “Effect on ACh Binding” value is reported as 2.09.

With `CSc1c(OCC(=O)O)ccc2c3ccccc3n(Cc3ccccc3)c12` [Example 46, (9-Benzyl-1-methylthiocarbazol-2-yloxy)acetic acid] the “Effect on ACh Binding” value was 2.21.

`O=C(O)CC1CCc2[nH]c3ccccc3c2C1` (stereo not drawn) [Example 61, (1,2,3,4-Tetrahydrocarbazol-3-yl)acetic acid] was tested, and the “Effect on ACh Binding” value was 2.11.

In the case of `CSc1c(Cc2nnn[nH]2)ccc2c3ccccc3n(Cc3ccccc3)c12` [Example 77, 5-[(9-Benzyl-1-methylthiocarbazol)-2-ylmethyl]-1H-tetrazole], the “Effect on ACh Binding” value is reported as 3.69.

With `O=C(O)CC1CCc2c(n(Cc3ccccc3)c3ccccc23)S1` (stereo not drawn) [Example 83, 2-(9-Benzyl-2,3,4,9-tetrahydrothiopyrano[2,3-b]indol-2-yl) acetic acid] the “Effect on ACh Binding” value was 2.08.

For `c1ccc(Cn2c3c(c4ccccc42)CCC(Cc2nnn[nH]2)S3)cc1` (stereo not drawn) [Example 84, 5-(9-Benzyl-2,3,4,9-tetrahydrothiopyrano[2,3-b]indol-2-yl)methyltetrazole], the “Effect on ACh Binding” value was 3.30.

With `O=C(O)Cc1cccc2c1ccn2Cc1ccccc1` [Example 91, (1-Benzylindol-4-yl)acetic acid] the “Effect on ACh Binding” value was 2.76.

In the case of `CSc1c(Cc2nnn[nH]2)cc(C)c2c3ccccc3n(Cc3ccccc3)c12` [Example 97, 5-[(9-Benzyl-4-methyl-1-methylthiocarbazol)-2-yl-methyl]-1H-tetrazole], the “Effect on ACh Binding” value is reported as 4.97.

For `CCCc1cc(CC(=O)O)c(SC)c2c1c1ccccc1n2Cc1ccccc1` [Example 116, (9-Benzyl-1-methylthio-4-propylcarbazol-2-yl)acetic Acid], the “Effect on ACh Binding” value was 3.99.

With `CCCOc1c(CC(=O)O)cc(C)c2c3ccccc3n(Cc3ccccc3)c12` [Example 132, (9-Benzyl-4-methyl-1-propoxycarbazol-2-yl)acetic Acid] the “Effect on ACh Binding” value was 2.68.

For `Cc1cc(CC(=O)O)c(OCc2ccccc2)c2c1c1ccccc1n2Cc1ccccc1` [Example 134, (9-Benzyl-1-benzyloxy-4-methylcarbazol-2-yl)acetic Acid], the “Effect on ACh Binding” value was 3.40.

`CSc1c(CC(=O)O)cc(C)c2c3ccccc3n(Cc3cccc(OCc4ccccc4)c3)c12` [Example 136, [9-(3-Benzyloxybenzyl)-4-methyl-1-methylthiocarbazol-2-yl]acetic Acid] was tested, and the “Effect on ACh Binding” value was 2.36.

In the case of `CSc1c(CC(=O)O)cc(C)c2c3ccccc3n(Cc3cccc(F)c3)c12` [Example 141, [9-(3-Fluorobenzyl)-4-methyl-1-methylthiocarbazol-2-yl]acetic Acid], the “Effect on ACh Binding” value is reported as 3.81.

For `CSc1c(CC(=O)O)cc(C)c2c3ccccc3n(Cc3ccc(F)cc3)c12` [Example 143, [9-(4-Fluorobenzyl)-4-methyl-1-methylthiocarbazol-2-yl]acetic Acid], the “Effect on ACh Binding” value was 5.36.

`CSc1c(CC(=O)O)cc(C)c2c3ccccc3n(Cc3cccc(Cl)c3)c12` [Example 145, [9-(3-Chlorobenzyl)-4-methyl-1-methylthiocarbazol-2-yl]acetic Acid] was tested, and the “Effect on ACh Binding” value was 5.27.

With `CSc1c(CC(=O)O)cc(C)c2c3ccccc3n(Cc3ccc(Cl)c(Cl)c3)c12` [Example 149, [9-(3,4-Dichlorobenzyl)-4-methyl-1-methylthiocarbazol-2-yl]acetic Acid] the “Effect on ACh Binding” value was 6.49.

For `CSc1c(Cc2nnn[nH]2)cc(C)c2c3ccccc3n(Cc3ccc(Cl)c(Cl)c3)c12` [Example 152, 5-[9-(3,4-Dichlorobenzyl)-4-methyl-1-methylthiocarbazol-2-yl]methyl-1H-tetrazole], the “Effect on ACh Binding” value was 2.02.

In the case of `O=C(O)Cc1ccc2c3ccccc3n(Cc3cccc(OCc4ccccc4)c3)c2c1` [Example 165, [9-(3-Benzyloxybenzyl)carbazol-2-yl]acetic Acid], the “Effect on ACh Binding” value is reported as 2.24.

In the case of `CCCc1cc(C(Cc2cccc([N+](=O)[O-])c2)C(=O)O)c(SC)c2c1c1ccccc1n2Cc1cccc([N+](=O)[O-])c1` (stereo not drawn) [Example 172, 2-[1-Methylthio-9-(3-nitrobenzyl)-4-propylcarbazol-2-yl]-3-(3-nitrophenyl)propionic Acid], the “Effect on ACh Binding” value is reported as 2.59.

With `CCCc1cc(CC(=O)O)c(SC)c2c1c1ccccc1n2Cc1ccc([N+](=O)[O-])cc1` [Example 176, [1-Methylthio-9-(4-nitrobenzyl)-4-propylcarbazol-2-yl]acetic Acid] the “Effect on ACh Binding” value was 2.08.

`CSc1c(CC(=O)O)cc(C)c2c3ccccc3n(Cc3ccc(Cl)cc3)c12` [Example 180, [9-(4-Chlorobenzyl)-4-methyl-1-methylthiocarbazol-2-yl]acetic Acid] was tested, and the “Effect on ACh Binding” value was 5.02.

For `COc1ccc2c(c1)c1c(C)cc(CC(=O)O)c(SC)c1n2Cc1ccccc1` [Example 182, (9-Benzyl-6-methoxy-4-methyl-1-methylthiocarbazol-2-yl)acetic Acid], the “Effect on ACh Binding” value was 2.57.

In the case of `CSc1c(CC(=O)O)cc(C(C)C)c2c3ccccc3n(Cc3ccccc3)c12` [Example 190, (9-Benzyl-4-isopropyl-1-methylthiocarbazol-2-yl)acetic Acid], the “Effect on ACh Binding” value is reported as 4.78.
